Laboratory results as given in patent US20260000079A1, “COMPOSITIONS AND METHODS FOR MODULATING IMMUNITY IN PLANTS” (BOYCE THOMPSON INSTITUTE FOR PLANT RESEARCH, INC., priority 2019, published 2026).

Legend:
[1] = system: Arabidopsis, tomato, and wheat roots; assay: LC-MS comparative metabolomics of ascr #18-treated plant roots; type: in vivo
Procedure: Plant tissues were immediately frozen in liquid nitrogen and ground to a fine powder and extracted with 350 μL mixture of water/methanol/chloroform (1:2:1) for 12 hours at 4° C., with shaking at 220 rpm. The extracts were dried in vacuo, resuspended in 100-200 μL of 80% methanol and analyzed by LC/MS. For root tissues, seedlings were extensively washed three times with the excess amount of distilled water and dried on filter paper. The root tissues from 40 seedlings were pooled in one tube and then similarly extracted. Mixed stage C. elegans culture extract was prepared as described (Panda, et al. (2017) Angew Chem. Int. Ed. Engl. 56(17): 4729-4733).
High resolution LC-MS analysis was performed on a Dionex™ 3000 UPLC system coupled with a Thermo Q Exactive™ high-resolution mass spectrometer as described (Artyukhin, et al. (2018) J. Am. Chem. Soc. 140 (8): 2841-2852; Panda, et al. (2017) Angew Chem. Int. Ed. Engl. 56 (17): 4729-4733). Metabolite extracts were separated using water-acetonitrile gradient using Agilent ZORBOX Eclispse XDB-C18 rapid resolution column (2.1 mm×150 mm, particle size 1.8-micron) maintained at 40° C. Solvent A: 0.1% formic acid in water; Solvent B: 0.1% formic acid in acetonitrile. […] Ascarosides were detected in negative ionization mode as [M-H]— and MS/MS spectra and retention times confirmed by comparison with known standards. […]

[2] = system: M. incognita J2 larvae; assay: Quantitative chemotaxis population assay (worm attraction assay); type: in vivo, Meloidogyne incognita; settings: 6-cm Petri dish, larvae counted after 4 hours
Procedure: FIG. 6A provides a graph of the number of nematodes touching the root tips of Arabidopsis wildtype and acx1acx5 treated with 50 nM ascr #18 or ascr #9 for 48 hours before transfer into 12-well plates containing Pluronic® F-127 gel with ˜200 freshly hatched M. incognita J2 larvae. Larvae touching the terminal part of roots were counted at 6 hours after seedling transfer. Data are average±s.d. (n=12). FIG. 6B provides a schematic of a Petri dish as shown in the plate layout. For FIG. 6C, the indicated concentrations of ascr #18, ascr #9, or ascr #18/ascr #9 mixtures were placed on one side with mock solutions on the other side of the 6-cm Petri dish. Subsequently, approximately 100 freshly hatched M. incognita J2 larvae were placed in the center of the plate. Larvae in the indicated scoring areas were counted after 4 hours. Data are averages±s.d. (n=12), **P≤0.003; two-tailed t-test. FIG. 6D provides the attraction index for different concentrations of ascr #18, ascr #9, or ascr #18/ascr #9 mixtures measured using the layout shown in FIG. 6C. Data are averages±SEM (n=12), **P≤0.002; two-tailed t-test.
Ascarosides were dissolved in ethanol to prepare millimolar stock solutions. […]
Chemotaxis plates were prepared by pouring 8 mL of 2% bacto-agar (BD Biosciences) into 6-cm Petri dishes. […] Worms that remained in the center 0.5-cm-wide strip were not counted. […]

| SMILES | abundance among ascr #18-derived metabolites in roots (LC-MS peak area) ([1]; all three plant species, ascr #18 root treatment 24 hours) | chemotaxis behavior of M. incognita J2 larvae (attraction index) [2] | uptake and metabolism of ascr #18 in roots ([1]; roots soaked 24 hours in ascr #18 solution, monocots and dicots) |
| --- | --- | --- | --- |
| C[C@H](CCC(=O)O)O[C@@H]1O[C@@H](C)[C@H](O)C[C@H]1O [ascr #9] | most abundant differential metabolite | no significant effect | – |
| CC1O[C@@H](O[C@@H](C)CCCCCCCCC(=O)O)C(O)C[C@H]1O (stereo in doubt) [ascr #18, (10R)-(3′R,5′R-dihydroxy-6′S-methyl-(2H)-tetrahydropyran-2-yloxy)-undecanoic acid] | – | no significant effect | taken up and subsequently metabolized into ascarosides with shorter fatty-acid side chains |
